Holding throughout (experiment): ≥ marks a high value that may be exact or a test limit, other limits are often not marked, values filed in µg/mL are converted to µM
Assay [1] concerns Candida albicans NCPF 1467.
The test system of assay [2] is Escherichia coli NCTC 10418.
Assay [3] deals with Staphylococcus aureus NCTC 10788.
The subject of assay [4] is Micrococcus luteus ATCC 9341.
Assay [5] deals with Candida albicans ATCC 36232.
Assay [6] concerns Staphylococcus aureus ATCC 6538.
In assay [7] the test system is Proteus vulgaris ATCC 6380.
Assay [8] deals with Escherichia coli ATCC 2592.
Assay [9] concerns Pseudomonas aeruginosa ATCC 9027.
Assay [10] has as its system Staphylococcus aureus.
For assay [11], the system named is Candida tropicalis CGMCC 2.1975.
Assay [12] relates to Candida albicans CGMCC 2.2086.
Assay [13] has as its system Staphylococcus aureus ATCC 25923.
Assay [14] deals with Staphylococcus aureus ATCC 29213.
The subject of assay [15] is Salmonella enterica subsp. enterica serovar Typhimurium C77-31.
Assay [16] concerns Lacticaseibacillus rhamnosus 7469.
Assay [17] has as its system Candida parapsilosis CGMCC 2.3989.
Assay [18] has as its system Lactiplantibacillus plantarum 8014.
For assay [19], the system named is Staphylococcus epidermidis ATCC 12228.
The test system of assay [20] is Salmonella enterica subsp. enterica serovar Typhimurium ATCC 14028.
In assay [21] the test system is Pseudomonas aeruginosa PAO1.
The subject of assay [22] is Staphylococcus aureus NCTC 8325.
The subject of assay [23] is Escherichia coli MG1655.
Assay [24] deals with Pseudomonas aeruginosa PA7.
Assay [25] deals with Escherichia coli ATCC 25922.
Assay [26] concerns Staphylococcus aureus JE2.
Assay [27] deals with Klebsiella pneumoniae ATCC 13883.
The test system of assay [28] is Pseudomonas aeruginosa E411-17.
Assay [29] has as its system Staphylococcus aureus M838-17.
Assay [30] deals with Klebsiella pneumoniae E406-17.
Assay [31] relates to Staphylococcus aureus USA 300 LAC.

Values after ≈ are worked out from the molar mass of the structure shown. Values joined by “and” are separate entries in the source; they are usually repeats but may differ in a detail not shown here. Identical values can stand only once.

The term MIC denotes the lowest concentration found to suppress growth. Higher therefore signals weaker potency.

For `CC[C@H](C)[C@H](NC(=O)[C@H](C)NC(=O)[C@@H]1CCCN1C(=O)[C@H](CC(C)C)NC(=O)[C@@H](N)Cc1ccccc1)C(=O)N[C@@H](C)C(=O)NCC(=O)N[C@@H](CC(C)C)C(=O)N[C@@H](C)C(=O)N[C@@H](C)C(=O)N[C@@H](CCCCN)C(=O)N[C@@H](Cc1ccccc1)C(=O)N[C@@H](CC(C)C)C(=O)N1CCC[C@H]1C(=O)N[C@@H](CCCCN)C(=O)N[C@H](C(=O)N[C@@H](Cc1ccccc1)C(=O)N[C@H]1CSSC[C@@H](C(=O)O)NC(=O)[C@H](CCCCN)NC(=O)[C@H](CCCCN)NC(=O)[C@H]([C@@H](C)O)NC(=O)[C@H]([C@@H](C)CC)NC(=O)[C@H](C)NC1=O)[C@@H](C)CC` [FLPAIAGLAAKFLPKIFCAITKKC], the MIC in assay [1] turned out to be 3.12 µM (≈ 8 µg/mL); in assay [2], 12.5 µM (≈ 32 µg/mL); in assay [3] it was 3.12 µM (≈ 8 µg/mL).

Take `CC[C@H](C)[C@H](NC(=O)[C@H](CCCCN)NC(=O)[C@@H]1CCCN1C(=O)[C@H](CC(C)C)NC(=O)[C@H](Cc1ccccc1)NC(=O)[C@H](CC(N)=O)NC(=O)[C@H](C)NC(=O)[C@H](C)NC(=O)[C@H](CC(C)C)NC(=O)CNC(=O)[C@H](C)NC(=O)[C@H](CC(C)C)NC(=O)[C@H](CC(C)C)NC(=O)[C@@H]1CCCN1C(=O)[C@H](CC(C)C)NC(=O)[C@@H](N)Cc1ccccc1)C(=O)N[C@@H](Cc1ccccc1)C(=O)N[C@@H](CS)C(=O)N[C@@H](CCCCN)C(=O)N[C@H](C(=O)N[C@H](C(=O)N[C@@H](CCCN=C(N)N)C(=O)N[C@@H](CCCCN)C(=O)N[C@@H](CS)C(N)=O)[C@@H](C)O)[C@@H](C)CC` [FLPLLAGLAANFLPKIFCKITRKC]: the MIC was 1.16 µM (≈ 3.12 µg/mL) in assay [4]; 1.16 µM (≈ 3.12 µg/mL) in assay [5]; 2.33 µM (≈ 6.25 µg/mL) in assay [6]; at least 37.3 µM in assay [7]; 2.33 µM (≈ 6.25 µg/mL) in assay [8]; 1.16 µM (≈ 3.12 µg/mL) in assay [9]. This molecule registered an MIC in assay [10] of 2.33 µM (≈ 6.25 µg/mL).

Regarding `CC[C@H](C)[C@H](N)C(=O)N[C@@H](Cc1cnc[nH]1)C(=O)N[C@@H](Cc1cnc[nH]1)C(=O)N[C@H](C(=O)N[C@@H](Cc1cnc[nH]1)C(=O)N[C@@H](Cc1cnc[nH]1)C(=O)N[C@H](C(=O)N[C@H](C(=O)N[C@@H](Cc1cnc[nH]1)C(=O)N[C@@H](Cc1cnc[nH]1)C(=O)N[C@H](C(=O)N[C@@H](Cc1cnc[nH]1)C(=O)N[C@@H](Cc1cnc[nH]1)C(=O)N[C@H](C(=O)N[C@H](C(=O)N[C@@H](Cc1cnc[nH]1)C(=O)N[C@@H](Cc1cnc[nH]1)C(=O)N[C@H](C(=O)N[C@@H](Cc1cnc[nH]1)C(=O)N[C@@H](Cc1cnc[nH]1)C(=O)N[C@H](C(=O)N[C@H](C(=O)N[C@@H](Cc1cnc[nH]1)C(=O)N[C@@H](Cc1cnc[nH]1)C(=O)N[C@H](C(=O)N[C@@H](Cc1cnc[nH]1)C(=O)N[C@@H](Cc1cnc[nH]1)C(=O)N[C@H](C(N)=O)[C@@H](C)CC)[C@@H](C)CC)[C@@H](C)CC)[C@@H](C)CC)[C@@H](C)CC)[C@@H](C)CC)[C@@H](C)CC)[C@@H](C)CC)[C@@H](C)CC)[C@@H](C)CC)[C@@H](C)CC` [IHHIHHIIHHIHHIIHHIHHIIHHIHHI], the MIC is 8 µM (≈ 28.6 µg/mL) in assay [11]; at least 64 µM in [12]; above 64 µM in [13]; above 64 µM in [14]; at least 64 µM in [15]; at least 64 µM in assay [16]. Also, the MIC is at least 64 µM in assay [17], 2 µM (≈ 7.14 µg/mL) in assay [18], above 64 µM in [19] and above 64 µM in [20].

`CC[C@H](C)[C@H](N)C(=O)N[C@@H](Cc1cnc[nH]1)C(=O)N[C@@H](Cc1cnc[nH]1)C(=O)N[C@H](C(=O)N[C@@H](Cc1cnc[nH]1)C(=O)N[C@@H](Cc1cnc[nH]1)C(=O)N[C@H](C(=O)N[C@H](C(=O)N[C@@H](Cc1cnc[nH]1)C(=O)N[C@@H](Cc1cnc[nH]1)C(=O)N[C@H](C(=O)N[C@@H](Cc1cnc[nH]1)C(=O)N[C@@H](Cc1cnc[nH]1)C(=O)N[C@H](C(N)=O)[C@@H](C)CC)[C@@H](C)CC)[C@@H](C)CC)[C@@H](C)CC)[C@@H](C)CC` [IHHIHHIIHHIHHI]: the MIC was 1 µM (≈ 1.79 µg/mL) in assay [11]; 8 µM (≈ 14.3 µg/mL) in assay [12]; above 64 µM in assay [13]; above 64 µM in assay [14]; at least 64 µM in assay [16]; 4 µM (≈ 7.17 µg/mL) in [17]. Moreover, the minimal inhibitory concentration (MIC) is at least 64 µM in assay [18]; above 64 µM in [19]; 32 µM and 64 µM in assay [20].

Take `CC[C@H](C)[C@H](N)C(=O)N[C@@H](CCCCN)C(=O)N[C@H](C(=O)N1CCC[C@H]1C(=O)N1CCC[C@H]1C(=O)N[C@H](C(=O)N[C@H](C(=O)N[C@@H](CCCCN)C(=O)N[C@@H](CC(=O)O)C(=O)N[C@H](C(=O)N[C@@H](CC(C)C)C(=O)N[C@@H](CCCCN)C(=O)N[C@@H](CCCCN)C(=O)N[C@H](C(=O)N[C@@H](C)C(=O)N[C@@H](CCCCN)C(=O)NCC(=O)N[C@H](C(=O)N[C@@H](CC(C)C)C(=O)N[C@@H](CO)C(=O)N[C@H](C(=O)N[C@H](C(=O)N[C@@H](C)C(=O)N[C@@H](CC(=O)O)C(=O)N[C@@H](C)C(=O)N[C@@H](CC(C)C)C(=O)N[C@@H](CO)C(=O)N[C@@H](CCCCN)C(=O)N[C@@H](CO)C(=O)O)C(C)C)[C@@H](C)O)C(C)C)C(C)C)[C@@H](C)O)C(C)C)[C@@H](C)CC)[C@@H](C)CC` [IKIPPIVKDTLKKVAKGVLSTVADALSKS]: the MIC in assay [21] was 5.66 µM (≈ 17.1 µg/mL); in assay [22], at least 362 µM; in [23], 1 µM (≈ 3.02 µg/mL); in [24] it was 8 µM (≈ 24.2 µg/mL).

With `CC(C)C[C@H](NC(=O)[C@H](CC(C)C)NC(=O)[C@H](CCCCN)NC(=O)[C@H](CC(C)C)NC(=O)CNC(=O)[C@H](CC(C)C)NC(=O)[C@H](CCCCN)NC(=O)[C@H](CC(C)C)NC(=O)[C@H](CC(C)C)NC(=O)[C@H](CC(C)C)NC(=O)[C@H](CCCCN)NC(=O)[C@H](CC(C)C)NC(=O)[C@@H](N)CCCCN)C(N)=O` [KLKLLLKLGLKLL], the MIC in assay [25] was above 25 µM; in [21] it was above 25 µM; in [26], 1.56 µM (≈ 2.33 µg/mL); in assay [27], 25 µM (≈ 37.3 µg/mL).

Turning to `CC[C@H](C)[C@H](NC(=O)[C@H](CCCCN)NC(=O)[C@@H](N)CCCN=C(N)N)C(=O)N[C@@H](Cc1c[nH]c2ccccc12)C(=O)N[C@@H](Cc1c[nH]c2ccccc12)C(=O)N[C@@H](Cc1c[nH]c2ccccc12)C(=O)N[C@@H](Cc1c[nH]c2ccccc12)C(=O)N[C@@H](CC(C)C)C(N)=O` [RKIWWWWL], the MIC is 6.2 µM (≈ 7.89 µg/mL) in [25]; at least 50 µM in assay [28]; 8.8 µM (≈ 11.2 µg/mL) in assay [29]; 12.5 µM (≈ 15.9 µg/mL) in assay [30]; 4.38 µM (≈ 5.58 µg/mL) in [31]; 4.38 µM (≈ 5.58 µg/mL) in assay [27].

Values taken from DBAASP.
